The values that follow come from paper PMC5636118, “Recombinant laccase from Pediococcus acidilactici CECT 5930 with ability to degrade tyramine” (PLoS ONE, 2017).

The target in this assay is T1, Lpa5930; P. acidilactici CECT 5930 laccase (D2EK17 protein) (Pediococcus acidilactici, UniProt Z9B926UHL0).
T1 construct: pET28a, E. coli BL21(DE3)/pGro7; ~60 kDa by SDS-PAGE; D2EK17 is the UniProt entry of the strain 7_4 homologue
T1 sequence (Z9B926UHL0 1-477): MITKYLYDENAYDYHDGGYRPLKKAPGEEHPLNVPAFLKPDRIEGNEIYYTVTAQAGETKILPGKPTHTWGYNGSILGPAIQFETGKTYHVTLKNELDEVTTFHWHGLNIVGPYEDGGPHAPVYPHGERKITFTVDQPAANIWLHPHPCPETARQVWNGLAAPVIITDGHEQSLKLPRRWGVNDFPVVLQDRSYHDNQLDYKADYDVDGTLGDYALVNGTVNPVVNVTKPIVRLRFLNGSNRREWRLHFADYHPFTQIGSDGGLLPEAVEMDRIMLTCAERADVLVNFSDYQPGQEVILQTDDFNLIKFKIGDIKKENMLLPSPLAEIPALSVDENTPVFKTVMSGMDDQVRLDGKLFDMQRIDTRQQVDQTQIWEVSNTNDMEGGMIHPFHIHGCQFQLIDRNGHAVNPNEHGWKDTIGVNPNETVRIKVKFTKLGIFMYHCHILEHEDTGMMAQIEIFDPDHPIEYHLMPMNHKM
The assay can be described thus: ABTS oxidation, absorbance at […] nm, Michaelis-Menten fit. The class given is biochemical. The note with it: acetate buffer pH 4.0, 28°C; apparent Km (abstract).

The term Km denotes the substrate concentration at which the rate is half of its maximum. Regarding `CCn1c(=NN=c2sc3cc(S(=O)(=O)O)ccc3n2CC)sc2cc(S(=O)(=O)O)ccc21` [ABTS, 2,2′-azino-bis(3-ethylbenzothiazoline-6-sulfonic acid)], the Km amounted to 1.7 mM.
